Among the data in a melting point compilation (Tetko et al.; mined from patent text by program, amines drawn as free bases though some values may be those of a salt) are melting point values, retold here.

In the case of `CN(C)[C@@H]1Cc2c(O)cccc2C[C@H]1O` (relative stereo), the melting point fell in the range of 179 to 183 °C.
For the compound `CS(=O)(=O)CS(=O)(=O)Cl`, the melting point was in the range of 109 to 111 °C.
The figure for `CCC(=O)Oc1ccc(NCc2c(F)c(F)c(C(F)(F)F)c(F)c2F)cc1C(=O)O` is 188 to 191 °C; for `O=C(O)c1ccccc1Oc1ccc(Cl)cc1` it is 114 to 115 °C.
The figure for `O=S1(=O)c2ccccc2C=Cc2ccc(C=Nc3ccccc3)cc21` is 184 to 185 °C; for `CON=Cc1ccc(-c2cc(F)cc(F)c2NC(=O)c2c(C)nn(C)c2F)cc1` it is 164 to 167 °C.
The figure for `CN1C(=O)CC[C@]2(C)c3ccc(Sc4nc(-c5ccccc5)cc5ccccc45)cc3CC[C@@H]12` is 183 to 189 °C.
On to `O=[N+]([O-])C[C@@H](O)[C@H](O)[C@@H](O)[C@@H](O)CO`, for which the melting point lay within 89 to 91 °C.
The value for `N#Cc1ncn2c(-c3cccc(C(F)(F)F)c3)ccnc12` was 168 to 169 °C; that for `CCOc1ccc2c(c1)C(C)=CC(C)(C)N2C(=O)OC` was 54.5 to 56.5 °C.
The compound `Cc1cc(OCc2ccccc2)cc2nc(OC(C)C)oc(=O)c12` registered a melting point of 137 to 138 °C.
Regarding `Nc1ncc(C#Cc2ccc(Cl)cc2)c(Oc2ccc(O)cc2)n1`, the melting point lay in the range of 250 to 251 °C.
The value for `CCCCN(CCCC)S(=O)(=O)c1cc(C(=O)CCl)ccc1Cl` was 71 °C.
The figure for `CC(=O)OC1(Cc2ccncc2)C(=O)N(N2CCCCC2)c2ccccc21` (centres undefined) is 139 to 140 °C; for `CN(C)C(=O)CN1CCC(c2ccc(Nc3nc4c(-c5cnn(-c6ccc(F)cc6)c5)cccn4n3)cc2)CC1` it is 131 to 133 °C; for `CCN1c2ncc(CSc3ccccc3)cc2C(=O)N(C)c2ccc(Cl)nc21` it is 92 to 93 °C.
The figure for `COc1cc(C(C)C)c2c(c1)S(=O)(=O)N(COC(=O)c1ccsc1)C2=O` is 125 to 127 °C.
As for `Cn1cccc1C(=O)C(C#N)C(=O)Nc1c(Cl)cccc1Cl` (centres undefined), the melting point lay within 196 to 199 °C.
The figure for `CC(C)Cn1c(CONS(C)(=O)=O)nc2c(N)nc3ccccc3c21` is 215 to 216 °C; for `CC(=Cc1ccc(C(=O)O)cc1)c1ccc2c(c1)SCCC2(C)C` it is 255 to 257 °C.
In turn, `CC1(C)CCC(C)(C)c2cc3c(cc21)CCC=C3Cc1ccc(C(=O)O)cc1` registered a melting point of 212 to 214 °C.
In turn, `C#Cc1ccc(C2SCC(C(C)(C)C)CS2)cc1` (centres undefined) had a melting point of 149 °C.
As to `CCOC(=O)c1cn(C2CC2)c2c(F)c(F)c(F)c(C)c2c1=O`, the melting point was 176 to 177 °C.
The value for `Cc1cc(-c2ccccc2)nc2c1ccn2-c1ccc(C(C)C)cc1Br` was 95.8 °C; that for `CC1(C)CS(=O)(=O)CC(C)(C)N1N` was 122 °C.
The figure for `O=C(Nc1ccccc1S(=O)(=O)NCC1CCCCC1)N[C@@H](Cc1ccc(NC(=O)c2c(Cl)cncc2Cl)cc1)C(=O)O` is 214 °C; for `Cc1cc(C2CC(C)(C)NC(C)(C)C2)cc(C)c1O` it is 152 to 154 °C.
For the compound `CCOC(=O)Oc1ccc([N+](=O)[O-])c(C(=O)O)c1`, the melting point lay within 132 to 137 °C.
The value for `CCOC(=O)c1cc2c3ccccc3n(C)c2s1` was 99 to 100 °C; that for `CC(CN1CCN(CCc2ccc(C(=O)O)cc2)CC1)Oc1ccc(C(=O)O)cc1` (centres undefined) was 270 to 271 °C.
The figure for `COC(=O)c1ccc2c(c1)Sc1ccccc1NC2` is 149 to 150 °C; for `CCSc1nc2c(C)sc(C(=O)O)c2n1Cc1ccc(-c2ccccc2-c2nnnn2C(c2ccccc2)(c2ccccc2)c2ccccc2)cc1` it is 138 to 140 °C.
The figure for `Nc1ccc(N2C(=O)c3ccc(Cl)cc3C2=O)c(Cl)c1` is 198 to 201 °C; for `O=c1[nH]c2c(c3nc(-c4ccccc4F)nn13)CCCCC2` it is 257 to 259 °C.
Compound `Cc1cc(-c2nc3cc(OC(C)C)cc(OC(C)C)c3c(=O)[nH]2)cc(C)c1OCCN1CCCC1` gave a melting point of 65 to 68 °C.
In the case of `O=c1c(CCCl)n[nH]c2ccccc12`, the melting point lay within 201 to 203 °C.
The figure for `O=C(C=NO)c1cccc(Cl)c1Cl` is 109 °C; for `CCNC(=O)[C@@H]1C[C@]2(NC(=O)N(CCCCl)C2=O)c2cc(F)ccc2O1` it is 95 to 97 °C.
With `O=C1c2cccc3cc([N+](=O)[O-])cc(c23)C(=O)N1O`, the melting point is 277 to 279 °C.
`CNc1c([N+](=O)[O-])ccc(Cl)c1C#N` had a melting point of 167 to 170 °C.
`COc1ccc(S(=O)(=O)c2ccccc2C(C)C)cc1` had a melting point of 100 °C.
For the compound `Cc1cc(-c2ccc(S(C)=O)cc2)n(-c2ccc(S(N)(=O)=O)cc2)c1` (centres undefined), the melting point lay in the range of 222 to 226 °C.
In turn, `O=c1ccn2c(c1O)C(c1ccc(Cl)cc1)OCC2` (centres undefined) came in with a melting point of 211 to 214 °C.
The value for `Cn1nnc2sc([N+](=O)[O-])cc2c1=O` was 164 to 168 °C; that for `COc1c(C(=O)O)nc(Br)c(Cl)c1N` was 154 to 156 °C.
The compound `COc1cc(C(=O)O)ccc1Cc1cccc2ccc(C(=O)NCC(C)C)cc12` came in with a melting point of 254 °C.
The compound `O=C(O)CN1CC2(CCCCC2)N(c2ccccc2)CC1=O` registered a melting point of 167 to 169 °C.
Consider `CCCCc1c(CN2C(=O)c3ccccc3C2=O)c(CC(C)C)nc2ccc(OCc3ccccc3)cc12`, for which the melting point lay in the range of 166 to 168 °C.
`OC1(CN2c3ccccc3Sc3ccccc32)CN2CCC1CC2` (centres undefined) yielded a melting point of 127 to 130 °C.
`COc1cc2[nH]cc(-c3cc4cc(F)cnc4n3S(=O)(=O)c3ccc(C)cc3)c2cc1OC`: the melting point was determined as 218 °C.
`O=C1CCc2ccc(Oc3ccc(CN4CCN(c5cccc(Cl)c5Cl)CC4)cc3)cc2N1` had a melting point of 185 to 186 °C.
The value for `CN1CCC(C2Cc3ccccc3C(=O)N2)CC1` (centres undefined) was 139 to 141 °C.
The compound `CCc1nn(Cc2n[nH]c(=O)o2)c(CC)c1Oc1cc(Cl)cc(Cl)c1` gave a melting point of 138 to 142 °C.
In the case of `CCc1ccc(-c2cn(C)cc(-c3ccccc3)c2=O)cc1`, the melting point lay in the range of 143 to 145 °C.
Compound `CCN(CC)CCOc1ccc(CNC(=O)C#Cc2ccc(C)cc2Cl)cc1` had a melting point of 135 to 138 °C.
The figure for `CC(C)(C)NC(=O)COc1cc2c(cc1C#Cc1ccccc1)NC(=O)CC(c1cccc(C#N)c1)=N2` is greater than 250 °C; for `O=C(Nc1c(C(O)(C(F)(F)F)C(F)(F)F)ccc2ccccc12)c1cccc(C(F)(F)F)c1` it is 187 to 188 °C; for `CN1Cc2c(-c3noc(CCl)n3)ncn2-c2cccc(Br)c2C1=O` it is 242 to 244 °C.
`Cc1cccc(-c2nc(Nc3ccc(Cl)cc3)c3ccccc3n2)n1` came in with a melting point of 256 to 259 °C.
The value for `O=Cc1c[nH]c2ccc(C(F)(F)F)cc12` was 242 to 243 °C; that for `Cn1cc(S(N)(=O)=O)c(=O)c2ccccc21` was 230 to 231 °C.
Consider `COCCn1nc(-c2sc(C(=O)NCc3ccccn3)nc2-c2ccccc2)ccc1=O`, for which the melting point fell in the range of 168 to 170 °C.
In turn, `CON(Cc1ccc(F)c(F)c1)C(=O)C1=C(O)C(=O)N(C)C1` showed a melting point of 146 to 147 °C.
The value for `Cn1c2c(c3ccccc31)C(=O)NCC2` was 240 to 244 °C; that for `CCOC(=O)c1oc2ccc(Cl)cc2c1CBr` was 112 to 114 °C.
The figure for `Nc1ccc(-c2ncn(-c3ccc(OC(F)(F)F)cc3)n2)cc1` is 147 °C.
`CC(C)=NNc1ccnc2c(NC(=O)c3c(Cl)cccc3Cl)cc(C)cc12` came in with a melting point of 242 to 245 °C.
The figure for `CCn1cnc2cc(C(F)(F)F)c(Cl)c(N)c21` is 192 to 193 °C; for `C[C@H](NS(=O)(=O)c1ccc2c(c1)Sc1ccccc1O2)C(=O)O` it is 75 to 85 °C.
The value for `Cc1ccc(C(C)N2C(=O)c3ccccc3C2=O)cc1` (centres undefined) was 65 to 66 °C.
The value for `COc1cc(Br)ccc1-c1ccc(Br)cc1[N+](=O)[O-]` was 127 to 129 °C; that for `CN(C)CCCOc1ccccc1C=NCC(N)=O` was 71 to 73 °C.
`COc1cc2c(cc1OC)[C@@H]1CCCC[C@@H]1N=C2c1ccc(N(S(=O)(=O)c2ccc(C)cc2)S(=O)(=O)c2ccc(C)cc2)cc1` (racemic): the melting point was 120 to 130 °C.
The figure for `CCCc1c(OCc2cccc(-c3nnn[nH]3)c2)ccc(C(C)=O)c1O` is 194 to 195 °C.
The figure for `COc1cc(COc2nc(-c3ccccc3)ncc2CO)ccc1OCc1nc(-c2ccco2)oc1C` is 150 to 151 °C.
As to `COc1ccc(-c2cc(CN3CCN(C)CC3)c(=O)n(Cc3ccc(F)c(F)c3)n2)cc1F`, the melting point was in the range of 135 to 136 °C.
The figure for `CCn1nnc(-c2cccc(-c3ccnc4c(C(=O)c5cccs5)cnn34)c2)n1` is 174 °C; for `O=c1c2c(Cl)cc(Cl)cc2[nH]c2c(O)nn(-c3ccccc3)c(=O)c12` it is 361 to 363 °C; for `CCCCCOc1ccc(-c2ccc(CC(=O)c3ccccc3)cc2)cc1` it is 86 °C.
The value for `Cc1c(C)c2c(c(C)c1NC(=O)CC(C)(C)C)C(c1ccccn1)C(C)(C)O2` (centres undefined) was 210 to 212 °C; that for `CC1(C)OC(C=Cc2cc(Cl)cc(Cl)c2)=CC1=O` was 129 to 131 °C; that for `OCCc1c(-c2ccccc2)n2nnnc2n2ncnc12` was 110 °C.
The compound `CN(C)CCCCCNC(=O)c1ccc(-c2nnc(CSCCOc3ccccc3)o2)cc1` displayed a melting point of 83 to 89 °C.
In turn, `O=C1Cc2cc(C(=O)CCl)ccc2N1` displayed a melting point of 236 to 239 °C.
For the compound `COc1ccc(Nc2ccc(Nc3ccnc4cc(-c5cccc([N+](=O)[O-])c5)sc34)cc2)cc1`, the melting point is 175 to 184 °C.
The figure for `COc1ccc(CS(=O)(=O)/C(=C/c2c(OC)cc(OC)cc2OC)C(=O)c2ccc(OC)cc2)cc1` is 60 to 62 °C; for `O=C1NCCN1CC#CCn1ccnc1` it is 97 to 101 °C; for `CCOc1ccc(NC(=O)c2cn(CC)c3c2C(=O)CCC3)cc1` it is 209 to 210 °C.
In turn, `COc1cccc2c1CC(CC(=O)O)C1(C2)OCCO1` (centres undefined) showed a melting point of 129 to 130 °C.

What is called melting point is the temperature of the solid-liquid transition.
